For orientation: T/C means the result in the treated group divided by that in the control group, in per cent. Usually IC50 stands for the point on the concentration scale where inhibition reaches its midpoint. A high value points to lower potency. For orientation: melting point means the temperature of the solid-liquid transition.

SMILES strings stand for the structures. “And” between values parts separate entries of the source, which are not always exact repeats. Identical values can stand only once.

These results are taken from paper PMC10766984, “Josephin domain containing 2 (JOSD2) promotes lung cancer by inhibiting LKB1 (Liver kinase B1) activity” (Signal Transduction and Targeted Therapy, 2024).

In series [1] the test system is NCI-H1299 xenografted tumors. Put plainly: Antitumor activity of HY041004 in vivo. The arrangement: species or system BALB/c-Nude mice. The following applies: for Tumor Weight: at the endpoint; for T/C: RTVtreated / RTVcontrol. The method, then:
(§1) The indicated cell lines were treated with indicated compounds at a series of concentrations for 72 h, followed by cell proliferation assay and colony formation assay. Black dashed line indicates 50% of cell survival.
Female BALB/c-Nude mice (4-5 weeks) were subcutaneously transplanted with 1 mm^3 NCI-H1299 xenograft tumor mass. […] The tumor volume was measured by a caliper every 2 days as soon as the tumor reached a palpable size. Relative tumor volume (RTV) was calculated by (RTV=TVt / TV0, where TV0 is the tumor volume measured when starting treatment). The T/C value was calculated as RTVtreated / RTVcontrol.

In a further series the test system is LKB1-WT NSCLC cell lines. Put plainly: Proliferation assay, panel of LKB1-WT cell lines. To be noted: average of four LKB1-WT cell lines, 72 h. The format is cell-based. The method, then:
as §1
(§2) For cell proliferation assay, cells infected with lentiviruses packaged indicated plasmids were seeded indicated number cells per well in 96-well plates. Cell number (absorbance) was then estimated by the sulforhodamine B (SRB) (Sigma-Aldrich, #230162) assay and the absorbance of the individual wells was determined at the optical density of 515 nm. For colony formation assay, cells infected with lentiviruses packaged indicated plasmids were seeded indicated number cells per well in 6-well plates. Two weeks later, cells were stained with SRB and the numbers of colonies having more than 50 cells were counted.

The test system of series [2] is NCI-H1299 xenografted tumors. As to the kind of experiment: TUNEL assay in xenografted tumors. The format is in vivo, BALB/c-Nude mice. The following applies: oral administration, in situ TUNEL. The text has this:
Apoptosis in xenografted tumors was detected by a TUNEL assay kit (Beyotime Biotechnology, Shanghai, China), according to the manufacturer's protocols. Images were captured by a fluorescence microscope.
(§3) (a) Proliferation assay in LKB1-null cells (means ± SD, n=3). […] Red dashed line indicates 50% of cell survival. (b) Proliferation assay in A549 harboring LKB1-null/WT/3KR (Top) and immunoblotting analysis showing the overexpression efficiency of LKB1-WT/3KR (Bottom). […] (means ± SD, n=3). (c) Representative images of in situ TUNEL assay of cancer cells inside tumor mass with or without JOSD2 inhibitor treatment. (means ± SD, n=3). n.s: P > 0.05; *P < 0.05; **P < 0.01.

The target of the next series is T1, Ataxin-3L (Homo sapiens, UniProt Q9H3M9).
T1 sequence (Q9H3M9 1-355): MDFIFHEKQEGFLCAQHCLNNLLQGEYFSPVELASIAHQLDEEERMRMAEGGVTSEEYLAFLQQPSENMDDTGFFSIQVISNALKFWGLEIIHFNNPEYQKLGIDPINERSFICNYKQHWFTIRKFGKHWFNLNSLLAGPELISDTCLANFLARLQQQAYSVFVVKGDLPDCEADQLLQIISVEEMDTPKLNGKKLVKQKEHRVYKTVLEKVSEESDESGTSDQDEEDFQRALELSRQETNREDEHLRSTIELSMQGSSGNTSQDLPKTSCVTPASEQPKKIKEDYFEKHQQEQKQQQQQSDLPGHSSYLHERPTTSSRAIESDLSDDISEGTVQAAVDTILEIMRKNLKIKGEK
Put plainly: In vitro ubiquitin-AMC assay with GST-Ataxin-3L. The format is biochemical. The following applies: incubated with GST-Ataxin-3L at 37 °C for 30 min. From the text:
(§4) (means ± SD, n=3). […] (means ± SD, n=3). […] (means ± SD, n=3). […] (means ± SD, n=3).

Series [3] concerns A549 harboring LKB1-null/WT/3KR. Put plainly: Proliferation assay in cells harboring LKB1-null/WT/3KR. It counts as cell-based. The following applies: series of concentrations, 72 h.
Text: as §3

Series [4] concerns NCI-H1299 cells. As to the kind of experiment: Apoptosis, IB of cell lysates after 72 h. The format is cell-based. To be noted: series of concentrations.
Text: as §4

The next series addresses JOSD1 (Homo sapiens, UniProt Q15040). Put plainly: In vitro ubiquitin-AMC assay with GST-JOSD1. The format is biochemical. To be noted: incubated with GST-JOSD1 at 37 °C for 30 min.
Text: as §4

A further series has as its target Ataxin-3 (Homo sapiens, UniProt P54252). Put plainly: In vitro ubiquitin-AMC assay with GST-Ataxin-3. It counts as biochemical. To be noted: incubated with GST-Ataxin-3 at 37 °C for 30 min.
Text: as §4

The subject of series [5] is LKB1-null NSCLC cell lines. As to the kind of experiment: Proliferation assay, panel of five LKB1-null cell lines. The format is cell-based. To be noted: 72 h. The method, then:
as §2, §3

Series [6] has as its system NCI-H1299 cells. Put plainly: Proliferation assay (SRB), 72 h. It counts as cell-based. To be noted: Homo sapiens, LKB1-WT. How it is done:
as §1, §2

A further series has as its system NCI-H292 cells. As to the kind of experiment: Proliferation assay (SRB), 72 h. The format is cell-based. To be noted: Homo sapiens, LKB1-WT. The method, then: as §1, §2
The next series deals with PC-9 cells. Put plainly: Proliferation assay (SRB), 72 h. The format is cell-based. To be noted: Homo sapiens, LKB1-WT. How it is done: as §1, §2
In another series the test system is NCI-H358 cells. As to the kind of experiment: Proliferation assay (SRB), 72 h. It counts as cell-based. To be noted: Homo sapiens, LKB1-WT. How it is done:
as §1, §2

The next series relates to NCI-H460 cells. Put plainly: Proliferation assay in LKB1-null cells, 72 h. It counts as cell-based. The following applies: Homo sapiens. The method, then: as §2, §3
The test system of a further series is NCI-H23 cells. As to the kind of experiment: Proliferation assay in LKB1-null cells, 72 h. It counts as cell-based. To be noted: Homo sapiens. The method, then:
as §2, §3

A further series relates to NCI-H1395 cells. Put plainly: Proliferation assay in LKB1-null cells, 72 h. It counts as cell-based. The following applies: Homo sapiens. The method, then: as §2, §3
The next series has as its system NCI-H838 cells. As to the kind of experiment: Proliferation assay in LKB1-null cells, 72 h. The format is cell-based. The following applies: Homo sapiens. The method, then: as §2, §3
Another series relates to A549 cells. As to the kind of experiment: Proliferation assay in LKB1-null cells, 72 h. The format is cell-based. The following applies: Homo sapiens. The method, then:
as §2, §3

Sequence of Ataxin-3 (P54252 whole entry): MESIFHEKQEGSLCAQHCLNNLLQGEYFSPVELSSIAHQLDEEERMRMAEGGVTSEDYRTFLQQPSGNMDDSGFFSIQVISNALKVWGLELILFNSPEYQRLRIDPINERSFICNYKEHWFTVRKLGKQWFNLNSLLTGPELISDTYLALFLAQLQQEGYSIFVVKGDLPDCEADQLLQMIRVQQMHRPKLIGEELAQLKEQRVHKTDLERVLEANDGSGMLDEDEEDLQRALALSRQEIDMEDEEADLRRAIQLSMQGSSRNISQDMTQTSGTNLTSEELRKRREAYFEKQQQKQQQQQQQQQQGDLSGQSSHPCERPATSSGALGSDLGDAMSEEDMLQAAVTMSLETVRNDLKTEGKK

The molecule `O=C1c2ccncc2C(=O)c2c1nnn2Cc1cc(F)cc(Cl)c1` [HY041004, 3-(3-chloro-5-fluorobenzyl)-3H-[1,2,3] triazolo[4,5-g]isoquinoline-4,9-dione] came in with a melting point of 172 to 174 °C. For the same molecule, in series [1] (50 mg/kg orally twice daily), the “Tumor Weight” value was 1.181 g and 1.18 ± 0.49 g; the T/C is recorded as 64.71%. In series [1] (100 mg/kg orally twice daily), the “Tumor Weight” value was 0.901 g and 0.90 ± 0.23 g; the T/C was determined as 43.88%. The concentration for half-maximal inhibition (IC50) with LKB1-WT NSCLC cell lines amounted to 0.122 µM. The Intratumor cell apoptosis result in series [2] is listed as “induced intratumor cell apoptosis”. In addition, the IC50 at Ataxin-3L came out at 12800 nM. In addition, the “Anti-proliferative effect upon exogenous introduction of LKB1-WT, but not 3KR” value in series [3] is “strengthen the anti-proliferative effect”. Moreover, in the series with NCI-H1299 cells [4], the Cell apoptosis result is “induced cell apoptosis in a concentration-dependent manner”. Also, at JOSD1, the IC50 worked out at 470 nM. In addition, the IC50 on Ataxin-3 worked out at 5400 nM. Also, half-maximal inhibition in [5] (average of five LKB1-null cell lines) (IC50) was put at 0.52 µM. Further, the “Susceptibility of LKB1-null cell lines” value in [5] (compared with LKB1 wild-type NSCLC cell lines) is listed as “less than that in LKB1 wild-type NSCLC cell lines”. Besides, in the series on NCI-H1299 cells [6], the half-maximal inhibitory concentration (IC50) was 0.1 µM. In the series with NCI-H292 cells, this molecule registered a half-maximal inhibitory concentration (IC50) of 0.14 µM. The IC50 in the series with PC-9 cells is 0.12 µM. In the series on NCI-H358 cells, this molecule displayed an IC50 of 0.13 µM. The molecule also displayed an IC50 in the series on NCI-H460 cells of 0.24 µM. The molecule further displayed a half-maximal inhibitory concentration (IC50) with NCI-H23 cells of 0.73 µM. Besides, the IC50 in the series with NCI-H1395 cells turned out to be 0.46 µM. In addition, the IC50 in the series on NCI-H838 cells was determined as 0.72 µM. Half-maximal inhibition in the series with A549 cells (IC50) was put at 0.46 µM.
